# Experiment: Toxicity in Balb/c nude mouse xenografted with human A549 cells assessed as reduction in body weight at 25 mg/kg, ip administered for 14 days
# Format: organism-based
# Conditions: in vivo, 336 h, time 14 day
smiles,measurement,value
Cl.Nc1ccn([C@@H]2O[C@H](CO)[C@@H](O)C2(F)F)c(=O)n1 [GEMCITABINE HYDROCHLORIDE],Activity,Toxic
